How the values were obtained:
[1] = biological target: dephosphorylated FGFR1 (SEQ ID NO: 1, amino acids 458 to 765) (Homo sapiens (Human), UniProt P11362); assay: FGFR enzyme binding assay (HTRF tracer displacement), FGFR1; conditions: 5 nM dephosphorylated FGFR1, average of multiple determinations if made
Procedure: (§1) The potency of compounds inhibiting human isoforms of FGFR kinase was determined using Life Technologies' Homogeneous Time Resolved Fluorescence (HTRF)-based binding assay technology. […] After a 60 minute incubation at 22° C., the extent of tracer displacement was determined using a PerkinElmer EnVision multimode plate reader via HTRF dual wavelength detection, and the percent of control (POC) was calculated using a ratiometric emission factor. One hundred POC was determined using no test compound, and 0 POC was determined in the presence of 1 μM of an appropriate control inhibitor.

[2] = biological target: phosphorylated FGFR3 (SEQ ID NO: 5, amino acids 449 to 759) (Homo sapiens (Human), UniProt P22607); assay: FGFR enzyme binding assay (HTRF tracer displacement), FGFR3; conditions: 5 nM phosphorylated FGFR3, average of multiple determinations if made
Procedure: as §1

[3] = biological target: recombinant human FGFR1 catalytic domain (amino acids 308-731) (Homo sapiens (Human), UniProt P11362); assay: FGFR1 enzyme activity assay (LanthaScreen TR-FRET); assay type: biochemical; conditions: 20 min incubation at 22° C., average of multiple determinations if made, read-out: FGFR1 Enz FRET IC50
Procedure: FGFR1 kinase activity was measured by the Invitrogen LanthaScreen™ Assay technology which directly measures the amount of substrate phosphorylation by Time-resolved fluorescence energy transfer (TR-FRET) using a fluorescently-labeled peptide and Europium-labeled antibody. Briefly, […] His-tagged recombinant human FGFR1 catalytic domain (amino acids 308-731) (Life Technologies Cat. No. PR4660A) was incubated with 100 nM Alexa Fluor® 647-Poly-GT Peptide Substrate (Life Technologies Cat. No. PV5836) and […] ATP along with test compound in a buffer consisting of 250 mM HEPES, 25 mM MgCl2, 0.05% TritonX-100, pH 7.5, and 2% DMSO. […] After a 20 minutes incubation at 22° C., an equal volume of 2 nM LanthaScreen® Eu-PY20 Antibody (Life Technologies Cat. No. PV5691) and 10 mM EDTA was added to quench the kinase reaction and start the detection reaction. After an additional 60 minute incubation at 22° C., the reaction was measured using a PerkinElmer EnVision multimode plate reader via TR-FRET dual wavelength detection, and the percent of control (POC) calculated using a ratiometric emission factor. 100 POC was determined using no test compounds and 0 POC was determined using no enzyme. The POC values were fit to a 4-parameter logistic curve as a function of the concentration of the compound, and the IC50 value is the point where the curve crosses 50 POC.

[4] = biological target: recombinant human FGFR2 cytoplasmic domain (amino acids 403-822) (Homo sapiens (Human), UniProt P21802); assay: FGFR2 enzyme activity assay (LanthaScreen TR-FRET); assay type: biochemical; conditions: 15 μM ATP, 20 min incubation at 22° C., average of multiple determinations if made, read-out: FGFR2 Enz FRET IC50
Procedure: FGFR2 kinase activity was measured by the Invitrogen LanthaScreen™ Assay technology which directly measures the amount of substrate phosphorylation by TR-FRET using a fluorescently-labeled peptide and Europium-labeled antibody. Briefly, […] His-tagged recombinant human FGFR2 cytoplasmic domain (amino acids 403-822) (Life Technologies Cat. No. PR5332A) was incubated with 100 nM Alexa Fluor® 647-Poly-GT Peptide Substrate (Life Technologies Cat. No. PV5836) and 15 μM ATP along with test compound in a buffer consisting of 250 mM HEPES, 25 mM MgCl2, 0.05% TritonX-100, pH 7.5, and 2% DMSO. […] After a 20 minute incubation at 22° C., an equal volume of 2 nM LanthaScreen® Eu-PY20 Antibody (Life Technologies Cat. No. PV5691) and 10 mM EDTA were added to quench the kinase reaction and start the detection reaction. After an additional 60 minute incubation at 22° C., the reaction was measured using a PerkinElmer EnVision multimode plate reader via TR-FRET dual wavelength detection, and the percent of control (POC) calculated using a ratiometric emission factor. 100 POC was determined using no test compounds and 0 POC was determined using no enzyme. The POC values were fit to a 4-parameter logistic curve as a function of the concentration of the compound, and the IC50 value is the point where the curve crosses 50 POC.

[5] = biological target: recombinant human FGFR3 (amino acids R397-T806) (Homo sapiens (Human), UniProt P22607); assay: FGFR3 enzyme activity assay (LanthaScreen TR-FRET); assay type: biochemical; conditions: 25 μM ATP, 10 min incubation at 22° C., average of multiple determinations if made, read-out: FGFR3 Enz FRET IC50
Procedure: FGFR3 kinase activity was measured by the Invitrogen LanthaScreen™ Assay technology which directly measures the amount of substrate phosphorylation by TR-FRET using a fluorescently-labeled peptide and Europium-labeled antibody. Briefly, […] N-terminal GST-HIS6 fusion protein with a 3C cleavage site recombinant human FGFR3 (amino acids R397-T806) (ProQinase Cat. No. 1068-0000-1) was incubated with 100 nM Alexa Fluor® 647-Poly-GT Peptide Substrate (Life Technologies Cat. No. PV5836) and 25 μM ATP along with test compound in a buffer consisting of 250 mM HEPES, 25 mM MgCl2, 0.05% TritonX-100, pH 7.5, and 2% DMSO. […] After a 10 minute incubation at 22° C., an equal volume of 2 nM LanthaScreen® Eu-PY20 Antibody (Life Technologies Cat. No. PV5691) and 10 mM EDTA were added to quench the kinase reaction and start the detection reaction. After an additional 60 minute incubation at 22° C., the reaction was measured using a PerkinElmer EnVision multimode plate reader via TR-FRET dual wavelength detection, and the percent of control (POC) calculated using a ratiometric emission factor. 100 POC was determined using no test compounds and 0 POC was determined using no enzyme. The POC values were fit to a 4-parameter logistic curve as a function of the concentration of the compound, and the IC50 value is the point where the curve crosses 50 POC.

[6] = biological target: FGFR1 (SEQ ID NO: 1, amino acids 458-765) (Homo sapiens (Human), UniProt P11362); assay: LC/MS FGFR1 kobs assay (covalent protein modification); assay type: binding; conditions: 500 nM FGFR1, 3 μM compound
Procedure: (§2) The LC/MS FGFR1 and FGFR3 kobs assays were conducted as follows. […] At each time point, the reaction was quenched with 20 μL of 0.4% formic acid. The extent of protein modification by each compound was determined by LC/MS on an Agilent Technologies 6520 Q-TOF LC/MS. Protein signals were then automatically deconvoluted using Agilent Masshunter software. Deconvoluted mass signals were exported to Tibco Spotfire data analysis program for further processing and normalization.
(§3) Data analysis included five steps. First, the signals for the “DMSO Controls” were analyzed to determine the percent of signal associated with unmodified FGFR1 or FGFR3 at each time point. Next, the percent of the signal associated with the covalent modification was determined. Third, the average nonmodified “DMSO Control” signal was used to normalize the modified protein signals at each time point. The percent of unmodified protein was fit to an exponential decay model where A0 is the Percent Unmodified at the start of the reaction, and kobs is the observed rate constant over the time period.

[7] = biological target: FGFR3 (SEQ ID NO: 5, amino acids 449-759) (Homo sapiens (Human), UniProt P22607); assay: LC/MS FGFR3 kobs assay (covalent protein modification); assay type: binding; conditions: 500 nM FGFR3, 3 μM compound
Procedure: as §2, §3
Table EC contains kobs values for compounds tested in these assays, presented as the average of multiple determinations if multiple determinations were made. ND=not determined.

Chain of dephosphorylated FGFR1 (SEQ ID NO: 1, amino acids 458 to 765) (P11362 458-765): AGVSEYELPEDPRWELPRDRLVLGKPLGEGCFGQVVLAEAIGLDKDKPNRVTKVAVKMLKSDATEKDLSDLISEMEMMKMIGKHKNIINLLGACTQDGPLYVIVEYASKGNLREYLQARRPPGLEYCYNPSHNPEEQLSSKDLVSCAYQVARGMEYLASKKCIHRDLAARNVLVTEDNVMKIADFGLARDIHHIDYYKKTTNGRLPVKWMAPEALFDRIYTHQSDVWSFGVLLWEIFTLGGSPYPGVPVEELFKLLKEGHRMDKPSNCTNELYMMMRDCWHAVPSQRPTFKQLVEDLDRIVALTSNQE
Chain of FGFR1 (SEQ ID NO: 1, amino acids 458-765) (P11362 458-765): as above
Chain of recombinant human FGFR3 (amino acids R397-T806) (P22607 397-806): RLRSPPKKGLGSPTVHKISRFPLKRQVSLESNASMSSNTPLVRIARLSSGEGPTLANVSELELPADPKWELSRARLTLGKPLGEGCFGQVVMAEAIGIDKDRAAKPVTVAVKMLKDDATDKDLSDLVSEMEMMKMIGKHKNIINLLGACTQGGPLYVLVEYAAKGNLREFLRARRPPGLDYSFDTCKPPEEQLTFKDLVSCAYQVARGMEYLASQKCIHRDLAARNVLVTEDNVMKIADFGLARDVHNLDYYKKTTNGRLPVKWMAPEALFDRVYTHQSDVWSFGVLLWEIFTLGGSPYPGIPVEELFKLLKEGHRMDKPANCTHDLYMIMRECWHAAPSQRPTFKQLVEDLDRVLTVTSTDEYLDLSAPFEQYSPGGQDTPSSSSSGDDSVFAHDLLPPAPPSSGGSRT
Chain of phosphorylated FGFR3 (SEQ ID NO: 5, amino acids 449 to 759) (P22607 449-759): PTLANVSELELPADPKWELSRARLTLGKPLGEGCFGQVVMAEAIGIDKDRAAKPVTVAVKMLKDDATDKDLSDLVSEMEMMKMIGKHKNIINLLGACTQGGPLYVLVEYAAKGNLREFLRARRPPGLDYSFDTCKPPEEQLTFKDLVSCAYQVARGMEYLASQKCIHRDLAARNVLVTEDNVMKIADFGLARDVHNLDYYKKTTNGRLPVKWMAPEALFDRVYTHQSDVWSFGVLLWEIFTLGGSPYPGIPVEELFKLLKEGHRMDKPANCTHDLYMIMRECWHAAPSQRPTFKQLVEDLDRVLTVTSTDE
Chain of FGFR3 (SEQ ID NO: 5, amino acids 449-759) (P22607 449-759): as above
Chain of recombinant human FGFR2 cytoplasmic domain (amino acids 403-822) (P21802 402-821): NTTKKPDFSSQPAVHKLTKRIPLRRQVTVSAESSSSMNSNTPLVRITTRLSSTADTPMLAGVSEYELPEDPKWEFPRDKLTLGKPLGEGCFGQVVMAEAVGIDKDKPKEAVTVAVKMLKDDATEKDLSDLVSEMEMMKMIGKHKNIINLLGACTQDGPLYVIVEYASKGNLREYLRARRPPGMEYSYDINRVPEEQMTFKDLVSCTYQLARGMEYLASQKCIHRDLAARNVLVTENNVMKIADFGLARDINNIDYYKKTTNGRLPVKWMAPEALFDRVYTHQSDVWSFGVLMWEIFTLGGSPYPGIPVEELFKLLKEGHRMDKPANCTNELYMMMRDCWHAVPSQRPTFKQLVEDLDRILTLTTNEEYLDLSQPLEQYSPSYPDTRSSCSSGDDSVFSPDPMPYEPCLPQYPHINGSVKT
Chain of recombinant human FGFR1 catalytic domain (amino acids 308-731) (P11362 other isoform, or with tags, fused parts or gaps): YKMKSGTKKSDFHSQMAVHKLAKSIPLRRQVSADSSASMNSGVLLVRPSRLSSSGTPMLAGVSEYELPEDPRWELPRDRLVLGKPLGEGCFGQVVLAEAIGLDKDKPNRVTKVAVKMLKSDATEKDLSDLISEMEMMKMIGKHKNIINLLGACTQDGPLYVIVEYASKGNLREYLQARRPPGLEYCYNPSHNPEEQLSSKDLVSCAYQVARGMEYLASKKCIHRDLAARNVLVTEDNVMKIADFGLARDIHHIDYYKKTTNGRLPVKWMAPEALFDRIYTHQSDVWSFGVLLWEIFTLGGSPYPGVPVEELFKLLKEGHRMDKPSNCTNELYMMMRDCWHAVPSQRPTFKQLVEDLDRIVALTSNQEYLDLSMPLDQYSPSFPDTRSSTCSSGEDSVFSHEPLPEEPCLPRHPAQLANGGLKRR

Row | IC50 [1] [nM] | IC50 [2] [nM] | IC50 [3] [nM] | IC50 [4] [nM] | IC50 [5] [nM] | FGFR1 Enz kobs [6] [min⁻¹] | FGFR3 Enz kobs [7] [min⁻¹] | SMILES
1 | 45 | 4 | 4 | 14 | 4 | 0.00076 | 0.00444 | C=CC(=O)N1CCN(C(=O)N2CCC(n3cc(-c4cc(OC)c5c(C#N)cnn5c4)cn3)CC2)CC1 [Example 2, 6-(1-(1-(4-acryloylpiperazine-1-carbonyl)piperidin-4-yl)-1H-pyrazol-4-yl)-4-methoxypyrazolo[1,5-a]pyridine-3-carbonitrile]
2 | 47 | 5 | 25 | 11 | 7 | 0.00047 | 0.00287 | C=CC(=O)N1C[C@H]2C[C@@H]1CN2C(=O)N1CCC(n2cc(-c3cc(OC)c4c(C#N)cnn4c3)cn2)CC1 [Example 5, 6-(1-(1-((1R,4R)-5-acryloyl-2,5-diazabicyclo[2.2.1]heptane-2-carbonyl)piperidin-4-yl)-1H-pyrazol-4-yl)-4-methoxypyrazolo[1,5-a]pyridine-3-carbonitrile]
3 | 31 | 6 | 20 | 4 | 2 | 0.00054 | 0.00124 | C=CC(=O)N1CCC[C@H](C(=O)N2CCC(n3cc(-c4cc(OC)c5c(C#N)cnn5c4)cn3)CC2)C1 [Example 16, (S)-6-(1-(1-(1-acryloylpiperidine-3-carbonyl)piperidin-4-yl)-1H-pyrazol-4-yl)-4-methoxypyrazolo[1,5-a]pyridine-3-carbonitrile]
4 | 94 | 20 | 23 | 5 | 2 | – | 0.00074 | C=CC(=O)N1CCC[C@@H](C(=O)N2CC[C@H](n3cc(-c4cc(OC)c5c(C#N)cnn5c4)cn3)C2)C1 [Example 64, 6-(1-((S)-1-((R)-1-acryloylpiperidine-3-carbonyl)pyrrolidin-3-yl)-1H-pyrazol-4-yl)-4-methoxypyrazolo[1,5-a]pyridine-3-carbonitrile]
5 | 177 | 56 | 26 | 6 | 3 | – | 0.0002 | C=CC(=O)N[C@H]1CC[C@H](C(=O)N2CC[C@H](n3cc(-c4cc(OC)c5c(C#N)cnn5c4)cn3)C2)CC1 [Example 65, N-((1S,4r)-4-((S)-3-(4-(3-cyano-4-methoxypyrazolo[1,5-a]pyridin-6-yl)-1H-pyrazol-1-yl)pyrrolidine-1-carbonyl)cyclohexyl)acryl-amide]
6 | 18 | 3 | 19 | 6 | 2 | – | 0.00063 | C=CC(=O)N[C@H]1C[C@H](C(=O)N2CC[C@H](n3cc(-c4cc(OC)c5c(C#N)cnn5c4)cn3)C2)C1 [Example 74, N-((1S,3r)-3-((S)-3-(4-(3-cyano-4-methoxypyrazolo[1,5-a]pyridin-6-yl)-1H-pyrazol-1-yl)pyrrolidine-1-carbonyl)cyclobutyl)acryl-amide]
7 | 447 | 79 | 36 | 11 | 10 | – | 0.00116 | C=CC(=O)N[C@H]1C[C@H](C(=O)N2CC(n3cc(-c4cc(OC)c5c(C#N)cnn5c4)cn3)C2)C1 [Example 79, N-((1r,3r)-3-(3-(4-(3-cyano-4-methoxypyrazolo[1,5-a]pyridin-6-yl)-1H-pyrazol-1-yl)azetidine-1-carbonyl)cyclobutyl)acryl-amide]
8 | 104 | 11 | 13 | – | 4 | 0.00047 | 0.00281 | CC#CC(=O)N1CC(C(=O)N2CCC(n3cc(-c4cc(OC)c5c(C#N)cnn5c4)cn3)CC2)C1 [Example 139, 6-(1-(1-(1-(but-2-ynoyl)azetidine-3-carbonyl)piperidin-4-yl)-1H-pyrazol-4-yl)-4-methoxypyrazolo [1,5-a]pyridine-3-carbonitrile]

Row | SMILES | IC50 [1] [nM] | IC50 [2] [nM] | IC50 [3] [nM] | IC50 [4] [nM] | IC50 [5] [nM] | FGFR1 Enz kobs [6] [min⁻¹] | FGFR3 Enz kobs [7] [min⁻¹]
9 | C=CC(=O)N1CC2CC(C1)N2C(=O)N1CCC(n2cc(-c3cc(OC)c4c(C#N)cnn4c3)cn2)CC1 [Example 4, 6-(1-(1-(3-acryloyl-3,6-diazabicyclo[3.1.1]heptane-6-carbonyl)piperidin-4-yl)-1H-pyrazol-4-yl)-4-methoxypyrazolo[1,5-a]pyridine-3-carbonitrile] | 42 | 6 | 11 | 4 | 3 | 0.00052 | 0.00283

Reference: patent US12180207B2 (ARRAY BIOPHARMA INC., priority 2018, dated 2024)
